Measurements: paper PMC4966941 (PLoS ONE, 2016)
Structures can show the parent of a compound that is named as a salt.

Test system: Staphylococcus aureus Xen 36
Test: In-vivo infection prevention study: X-ray and micro-CT signs of tibial osteomyelitis
Protocol: Bioluminescent strain Staphylococcus aureus Xen 36 (Caliper LifeSciences, Alameda, CA) was used to develop bone infection. The strain was stored in a glycerol (20% v/v) and Brain Heart Infusion (BHI) suspension at -80°C until required. Bacteria were subcultured onto an LB plate (Luria-Bertani, Miller broth mixed with 1.2% (w/v) Technical Agar (Difco, Sparks, MD.)), at 37°C overnight. Five colonies were then transferred to 3 mL LB broth and grown in shaker incubator (200 rpm), at 37°C for 2.5 h. Two milliliters of the bacterial suspension was transferred to 100 mL LB broth and grown for a further 4 h, until the cells reached exponential growth. Bacterial suspension was transferred into 50 mL centrifuge tubes and cells centrifuged at ~3,000 rpm for 30 min. Supernatants were discarded and pellets were re-suspended in 15 mL Phosphate Buffered Saline (PBS). Cells were then mixed by vortexing and the centrifugation process was repeated. This cell washing process was repeated three times. The final washed and pelleted cells were re-suspended in a total of 10 mL PBS, and mixed by vortexing. The cell suspension was then ten-fold serially diluted. The concentration of the cell suspension was then determined using the spread plate technique and spreading 100 μL of the various dilutions onto LB plates, in duplicate. Plates were incubated at 37°C overnight before counting colony forming units (CFU). […]

SMILES: CN[C@H](CC(C)C)C(=O)N[C@H]1C(=O)N[C@@H](CC(N)=O)C(=O)N[C@H]2C(=O)N[C@H]3C(=O)N[C@H](C(=O)N[C@H](C(=O)O)c4cc(O)cc(O)c4-c4cc3ccc4O)[C@H](O)c3ccc(c(Cl)c3)Oc3cc2cc(c3O[C@@H]2O[C@H](CO)[C@@H](O)[C@H](O)[C@H]2O[C@H]2C[C@](C)(N)[C@H](O)[C@H](C)O2)Oc2ccc(cc2Cl)[C@H]1O [vancomycin, vancomycin hydrochloride]
- Vancomycin treated rats displaying radiographic signs of osteomyelitis (rat tibia inoculated with S. aureus Xen 36 (Log10 5.5 CFU/5 μL) with simultaneous single 25 mg/Kg intramedullary dose, 14 days, n = 9): zero
- Micro CT evaluation of treated rats (rat tibia inoculated with S. aureus Xen 36, single 25 mg/Kg intramedullary dose, compared to untreated controls): absent of any signs of osteomyelitis
